Experimental data reported in patent publication US8933230B2, “Phosphorus-containing group-substituted quinoline, its preparation process, medical composition containing the compounds and application” (priority 2011, dated 2015).
pIC50: −log10 of the molar value.

Experiments:
[1] = molecular target: T1, ABL1(H396P)-phosphorylated (Homo sapiens, UniProt P00519, H396P); assay: KinomeScan kinase panel; assay type: binding
T1 construct: purchased DiscoveRx Corporation (KinomeScan)
Summary of the method: (§1)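 Panel screen (KinomeScan, 442 kinases). One test concentration, 1000 nM; no dose-response.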

ADCK4 = molecular target: T2, ADCK4 (Homo sapiens, UniProt Q96D53); assay: KinomeScan kinase panel; assay type: binding
T2 construct: purchased DiscoveRx Corporation (KinomeScan)
T2 sequence (Q96D53 whole entry): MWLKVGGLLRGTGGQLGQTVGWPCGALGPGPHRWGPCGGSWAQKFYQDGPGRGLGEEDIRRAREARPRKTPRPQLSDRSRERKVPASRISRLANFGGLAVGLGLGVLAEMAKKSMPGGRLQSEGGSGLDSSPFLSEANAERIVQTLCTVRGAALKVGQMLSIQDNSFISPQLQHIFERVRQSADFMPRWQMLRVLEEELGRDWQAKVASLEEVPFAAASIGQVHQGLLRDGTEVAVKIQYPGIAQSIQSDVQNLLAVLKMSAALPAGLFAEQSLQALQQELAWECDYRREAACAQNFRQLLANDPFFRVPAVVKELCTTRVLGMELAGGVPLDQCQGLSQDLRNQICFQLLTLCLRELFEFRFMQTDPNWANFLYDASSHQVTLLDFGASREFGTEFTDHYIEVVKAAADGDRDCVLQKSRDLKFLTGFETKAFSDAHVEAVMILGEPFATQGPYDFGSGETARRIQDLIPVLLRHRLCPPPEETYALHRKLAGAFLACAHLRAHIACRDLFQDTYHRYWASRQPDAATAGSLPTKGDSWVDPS
Summary of the method: as §1

CTK = molecular target: T3, CTK (Homo sapiens, UniProt P42679); assay: KinomeScan kinase panel; assay type: binding
T3 construct: purchased DiscoveRx Corporation (KinomeScan)
T3 sequence (P42679 whole entry): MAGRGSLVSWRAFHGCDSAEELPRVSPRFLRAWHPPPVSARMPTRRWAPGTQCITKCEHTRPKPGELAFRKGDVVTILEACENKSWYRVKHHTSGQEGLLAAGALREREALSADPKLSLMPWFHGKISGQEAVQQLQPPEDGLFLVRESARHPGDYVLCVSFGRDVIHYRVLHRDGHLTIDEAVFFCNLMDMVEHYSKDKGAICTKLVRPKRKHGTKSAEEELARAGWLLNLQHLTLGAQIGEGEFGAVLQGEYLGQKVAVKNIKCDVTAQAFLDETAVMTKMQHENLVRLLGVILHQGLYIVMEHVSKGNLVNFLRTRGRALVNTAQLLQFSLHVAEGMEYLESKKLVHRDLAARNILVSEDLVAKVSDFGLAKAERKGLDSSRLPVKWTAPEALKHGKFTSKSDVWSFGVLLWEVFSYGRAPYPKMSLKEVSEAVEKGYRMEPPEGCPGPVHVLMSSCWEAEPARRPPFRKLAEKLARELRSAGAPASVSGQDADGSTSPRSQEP
Summary of the method: as §1

ITK = molecular target: T4, ITK (Homo sapiens, UniProt Q08881); assay: KinomeScan kinase panel; assay type: binding
T4 construct: purchased DiscoveRx Corporation (KinomeScan)
T4 sequence (Q08881 whole entry): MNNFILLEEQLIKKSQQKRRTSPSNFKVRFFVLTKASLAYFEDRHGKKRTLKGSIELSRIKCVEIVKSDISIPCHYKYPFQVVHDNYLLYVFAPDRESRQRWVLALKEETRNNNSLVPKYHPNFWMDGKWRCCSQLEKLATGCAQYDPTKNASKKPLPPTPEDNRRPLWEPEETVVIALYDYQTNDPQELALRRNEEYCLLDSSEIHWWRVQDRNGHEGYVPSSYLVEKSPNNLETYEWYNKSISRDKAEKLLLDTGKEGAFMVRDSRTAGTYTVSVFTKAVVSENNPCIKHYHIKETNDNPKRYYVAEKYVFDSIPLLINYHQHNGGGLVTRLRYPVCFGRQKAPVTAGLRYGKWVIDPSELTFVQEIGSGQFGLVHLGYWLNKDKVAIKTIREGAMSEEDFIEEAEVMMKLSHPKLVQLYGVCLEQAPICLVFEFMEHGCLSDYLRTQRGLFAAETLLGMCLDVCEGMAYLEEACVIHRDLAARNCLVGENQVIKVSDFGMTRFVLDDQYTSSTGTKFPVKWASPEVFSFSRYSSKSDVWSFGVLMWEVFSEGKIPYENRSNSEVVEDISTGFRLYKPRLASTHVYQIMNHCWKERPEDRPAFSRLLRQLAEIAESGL
Summary of the method: as §1

MTOR = molecular target: T5, MTOR (Homo sapiens, UniProt P42345); assay: KinomeScan kinase panel; assay type: binding
T5 construct: purchased DiscoveRx Corporation (KinomeScan)
Summary of the method: as §1

PRKR = molecular target: T6, PRKR (Homo sapiens, UniProt P19525); assay: KinomeScan kinase panel; assay type: binding
T6 construct: purchased DiscoveRx Corporation (KinomeScan)
T6 sequence (P19525 whole entry): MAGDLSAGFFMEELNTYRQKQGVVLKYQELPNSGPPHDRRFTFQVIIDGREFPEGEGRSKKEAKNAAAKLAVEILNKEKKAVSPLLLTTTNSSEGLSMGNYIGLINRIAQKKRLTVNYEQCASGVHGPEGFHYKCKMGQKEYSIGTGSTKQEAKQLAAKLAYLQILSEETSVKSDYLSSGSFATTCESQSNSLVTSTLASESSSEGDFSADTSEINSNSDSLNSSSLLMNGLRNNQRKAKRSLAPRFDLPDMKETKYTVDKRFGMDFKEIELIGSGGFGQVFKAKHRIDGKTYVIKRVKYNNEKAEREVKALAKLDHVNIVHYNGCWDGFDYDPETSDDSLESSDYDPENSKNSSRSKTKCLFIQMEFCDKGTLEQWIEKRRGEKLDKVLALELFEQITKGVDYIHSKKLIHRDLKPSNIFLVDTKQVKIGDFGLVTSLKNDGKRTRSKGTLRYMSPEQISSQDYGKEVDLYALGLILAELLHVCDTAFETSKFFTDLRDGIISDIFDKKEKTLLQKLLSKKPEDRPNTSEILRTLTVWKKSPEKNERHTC
Summary of the method: as §1

STK39 = molecular target: T7, STK39 (Homo sapiens, UniProt Q9UEW8); assay: KinomeScan kinase panel; assay type: binding
T7 construct: purchased DiscoveRx Corporation (KinomeScan)
Summary of the method: as §1

PFCDPK1 (P. falciparum) = molecular target: T8, PFCDPK1 (P. falciparum) (Plasmodium falciparum, UniProt P62344); assay: KinomeScan kinase panel; assay type: binding
T8 construct: purchased DiscoveRx Corporation (KinomeScan)
T8 sequence (P62344 whole entry): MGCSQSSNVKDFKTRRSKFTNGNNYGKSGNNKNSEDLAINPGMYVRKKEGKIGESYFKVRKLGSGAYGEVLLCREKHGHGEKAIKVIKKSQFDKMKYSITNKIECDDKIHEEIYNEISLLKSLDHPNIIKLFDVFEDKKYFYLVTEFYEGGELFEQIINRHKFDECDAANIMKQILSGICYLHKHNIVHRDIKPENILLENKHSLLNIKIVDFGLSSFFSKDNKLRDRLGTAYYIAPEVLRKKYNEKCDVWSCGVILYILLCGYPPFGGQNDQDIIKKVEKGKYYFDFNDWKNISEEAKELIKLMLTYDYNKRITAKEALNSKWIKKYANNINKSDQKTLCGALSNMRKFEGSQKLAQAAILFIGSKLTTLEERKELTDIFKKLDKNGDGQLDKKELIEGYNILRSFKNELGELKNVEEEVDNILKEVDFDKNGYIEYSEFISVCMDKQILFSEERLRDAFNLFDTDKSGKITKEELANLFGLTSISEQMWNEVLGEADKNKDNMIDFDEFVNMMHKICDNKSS

c-KIT = molecular target: T9, c-KIT (Homo sapiens, UniProt P10721); assay: c-KIT kinase phosphorylation in M07e cells (sandwich ELISA); assay type: cell-based; conditions: SCF 100 ng/mL 3 min, mean value of two testing results, read-out: IC50 values in the cell, c-KIT
T9 construct: cell line M07e having endogenous high expression wild type c-KIT; endogenous in cells; host or cells: M07e
T9 sequence (P10721 26-976): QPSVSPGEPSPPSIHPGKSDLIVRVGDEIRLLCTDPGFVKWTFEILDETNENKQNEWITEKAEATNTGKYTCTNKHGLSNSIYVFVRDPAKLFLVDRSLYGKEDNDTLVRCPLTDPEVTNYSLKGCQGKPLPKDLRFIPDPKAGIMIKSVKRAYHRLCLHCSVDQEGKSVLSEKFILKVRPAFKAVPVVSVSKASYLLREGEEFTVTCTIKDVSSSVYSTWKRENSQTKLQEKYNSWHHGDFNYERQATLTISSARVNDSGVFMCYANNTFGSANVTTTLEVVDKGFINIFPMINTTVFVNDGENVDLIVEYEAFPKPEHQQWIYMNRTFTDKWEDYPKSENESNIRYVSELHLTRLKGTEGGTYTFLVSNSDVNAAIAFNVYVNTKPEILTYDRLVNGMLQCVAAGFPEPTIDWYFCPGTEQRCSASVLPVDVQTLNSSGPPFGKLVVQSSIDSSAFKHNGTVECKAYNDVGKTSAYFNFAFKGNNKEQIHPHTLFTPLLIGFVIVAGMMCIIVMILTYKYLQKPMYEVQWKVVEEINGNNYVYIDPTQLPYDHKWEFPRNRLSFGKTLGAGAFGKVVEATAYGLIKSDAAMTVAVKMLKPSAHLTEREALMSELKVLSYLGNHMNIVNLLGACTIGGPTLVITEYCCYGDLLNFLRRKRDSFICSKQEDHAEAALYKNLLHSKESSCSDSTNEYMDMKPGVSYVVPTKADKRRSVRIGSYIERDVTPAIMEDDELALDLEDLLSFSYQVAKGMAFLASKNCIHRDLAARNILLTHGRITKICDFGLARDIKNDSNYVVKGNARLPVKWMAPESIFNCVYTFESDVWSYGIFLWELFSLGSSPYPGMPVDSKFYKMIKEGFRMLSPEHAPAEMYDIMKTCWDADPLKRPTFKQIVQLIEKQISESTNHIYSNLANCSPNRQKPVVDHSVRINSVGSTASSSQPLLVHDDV
Procedure: Inhibitory activity on the kinases in tumor cells: In this example, the compound prepared in Example 10, N1-[4-[[7-[[1-(diethoxyphosphorylmethyl)-4-piperidinyl]methoxyl]-6-methoxyl-4-quinolyl]oxyl]-3-fluorophenyl]-N1′-(4-fluorophenyl)cyclopropane-1,1-dicarboxamide is tested in tumor cells by ProQinase GmbH corporation (Breisacher Str. 117, D-79106 Freiburg, Germany. www.proqinase.com) for the inhibitory activity on the following kinases: c-KIT, c-MET, VEGFR2 and PDGFR-β. The test includes the following steps:
Firstly, the compound according to present invention is dissolved in dimethyl sulfoxide (DMSO) to prepare a 10 mM stock solution, which is diluted serially according to the concentration range shown in Table 6:
c-KIT kinase: in the test experiment of KIT kinase phosphorylation in the cells, human acute megakaryocytic leukemia cell line M07e having endogenous high expression wild type c-KIT is used. When these cells are stimulated with human stem cell factor (SCF), the tyrosine of KIT receptor kinases is self-phosphorylated. M07e cells are inoculated in RPMI containing 20% fetal calf serum (FCS) and 10 ng/ml GM-CSF in a multi-well cell culture dish. The compound of the invention is added to the cells after overnight starvation of serum and growth factor, then the cells are cultured in a medium without serum. […]

## CCOP(=O)(CN1CCC(COc2cc3nccc(Oc4ccc(NC(=O)C5(C(=O)Nc6ccc(F)cc6)CC5)cc4F)c3cc2OC)CC1)OCC [Example 10, N1-[4-[[7-[[1-(diethoxyphosphorylmethyl)-4-piperidinyl]methoxyl]-6-methoxyl-4-quinolyl]oxyl]-3-fluorophenyl]-N1′-(4-fluorophenyl)cyclopropane-1,1-dicarboxamide]
[1]
  % Ctrl@1000 nM: 63 % Ctrl
ADCK4
  % Ctrl@1000 nM: 100 % Ctrl
CTK
  % Ctrl@1000 nM: 100 % Ctrl
ITK
  % Ctrl@1000 nM: 34 % Ctrl
MTOR
  % Ctrl@1000 nM: 100 % Ctrl
PRKR
  % Ctrl@1000 nM: 100 % Ctrl
STK39
  % Ctrl@1000 nM: 100 % Ctrl
PFCDPK1 (P. falciparum)
  % Ctrl@1000 nM: 84 % Ctrl
c-KIT
  pIC50: 7.57
